# Experimental data taken from patent publication US11104648B2, “Pyrazole derivative” (Zhejiang Research Institute of Chemical Industry Co., Ltd., priority 2018, dated 2021).
# Read-outs that look alike come from different tables or passages of the source.
# Experiments:
# Type in all cases: in vivo
# [1] = system: Tetranychus cinnabarinus Nymphs; test: Activity assay of Tetranychus cinnabarinus nymphs (spray on broad bean leaves)
# Summary of the method: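 Compound in DMF (≤10%) diluted in 1‰ Tween 80 water was sprayed onto broad bean leaves carrying nymphs hatched from eggs laid by female adults over 24 h. Kept at 26±2° C., 70%–80% humidity, 16 h light; mortality (no response to touch) assessed after 48 h, three replicates with blank control.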
# [2] = system: Eggs of Tetranychus Cinnabarinus; test: Activity assay of eggs of Tetranychus cinnabarinus (spray method, ovicidal); conditions: Tetranychus cinnabarinus, read-out: ovicidal activity; for pest or weed control at 2 µg/mL: concentration 2 mg/L
# Summary of the method: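 Female mites laid eggs on broad bean leaves for 24 h, adults removed, eggs sprayed with compound in DMF (≤10%)/1‰ Tween 80. Held at 26±2° C, 70–80% humidity, 16 h light; unhatched eggs counted dead once blank control hatched. Three replicates.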
# [3] = system: adult Tetranychus cinnabarinus; test: Activity assay of adult Tetranychus cinnabarinus (whole-plant spray on bean seedlings); conditions: 48 h, read-out: adult mite-killing activity; for pest or weed control at 1.25 µg/mL: concentration 1.25 mg/L
# Summary of the method: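 Bean seedlings at two-true-leaf stage, infested with adult mites and base count taken, sprayed whole-plant with compound in DMF (≤10%) diluted in 1‰ Tween 80. Three replicates per treatment kept in standard observation room. Surviving mites counted at 48 h to give death rate.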
# [4] = 48 h, concentration 2.5 mg/L, read-out: nymph-killing activity
# [5] = concentration 5 mg/L, spray, non-incubated eggs counted as dead
# [6] = 48 h, read-out: nymph-killing activity
# [7] = concentration 2.5 mg/L, 48 h, read-out: nymph-killing activity
# [8] = 48 h, concentration 2 mg/L, read-out: nymph-killing activity
Structure (SMILES),"pest or weed control at 2.5 µg/mL [1, 4] [%]","pest or weed control at 5 µg/mL [2, 5] [%]",pest or weed control at 2.5 µg/mL ([3]; concentration 2.5 mg/L) [%],further results
CCn1nc(C)c(C)c1/C(OCOC(=O)CC(C)C)=C(\C#N)c1ccc(C(C)(C)C)cc1 [Compound 382],≥ 95,≥ 90,≥ 90,
CCn1nc(C)c(C)c1/C(OCOC(=O)COC)=C(\C#N)c1ccc(C(C)(C)C)cc1 [Compound 383],≥ 95,≥ 90,≥ 90,
CCn1nc(C)c(C)c1/C(OCOC(=O)C1CC1)=C(\C#N)c1ccc(C(C)(C)C)cc1 [Compound 384],≥ 95,≥ 90,≥ 90,
CCn1nc(C)c(C)c1/C(OCOC(=O)CSC)=C(\C#N)c1ccc(C(C)(C)C)cc1 [Compound 385],≥ 95,≥ 90,≥ 90,
CCn1nc(C)c(C)c1/C(OCOC(=O)C1CCCCC1)=C(\C#N)c1ccc(C(C)(C)C)cc1 [Compound 386],≥ 95,≥ 90,≥ 90,
CCn1nc(C)c(C)c1/C(OCOC(=O)CF)=C(\C#N)c1ccc(C(C)(C)C)cc1 [Compound 387],,,,"pest or weed control at 2.5 µg/mL [1, 6]: ≥ 95%; pest or weed control at 5 µg/mL [2]: ≥ 90%; pest or weed control at 2.5 µg/mL [3]: ≥ 90%"
CCn1nc(C)c(C)c1/C(OCOC(=O)C(F)(F)F)=C(\C#N)c1ccc(C(C)(C)C)cc1 [Compound 388],≥ 95,≥ 90,≥ 90,
CCn1nc(C)c(C)c1/C(OCOC(=O)c1ccccc1)=C(\C#N)c1ccc(C(C)(C)C)cc1 [Compound 389],≥ 95,≥ 90,≥ 90,
CCn1nc(C)c(C)c1/C(OCOC(=O)Cc1ccccc1)=C(\C#N)c1ccc(C(C)(C)C)cc1 [Compound 390],,≥ 90,≥ 90,"pest or weed control at 2.5 µg/mL [1, 7]: ≥ 95%"
CCn1nc(C)c(C)c1/C(OCOC(=O)C(C)(C)CC)=C(\C#N)c1ccc(C(C)(C)C)cc1 [Compound 391],≥ 95,≥ 90,≥ 90,
C=CC(=O)OCO/C(=C(/C#N)c1ccc(C(C)(C)C)cc1)c1c(C)c(C)nn1CC [Compound 392],≥ 95,≥ 90,≥ 90,
CCn1nc(C)c(C)c1/C(OC(C)OC(C)=O)=C(\C#N)c1ccc(C(C)(C)C)cc1 (stereo not drawn) [Compound 401],≥ 95,≥ 90,≥ 90,"pest or weed control at 2 µg/mL [1, 8]: ≥ 90%; pest or weed control at 2 µg/mL ([2]; spray): ≥ 90%; pest or weed control at 1.25 µg/mL [3]: ≥ 90%"
CCC(=O)OC(C)O/C(=C(/C#N)c1ccc(C(C)(C)C)cc1)c1c(C)c(C)nn1CC (stereo not drawn) [Compound 402],≥ 95,≥ 90,≥ 90,"pest or weed control at 2 µg/mL [1, 8]: ≥ 90%; pest or weed control at 2 µg/mL ([2]; spray): ≥ 90%; pest or weed control at 1.25 µg/mL [3]: ≥ 90%"
CCCC(=O)OC(C)O/C(=C(/C#N)c1ccc(C(C)(C)C)cc1)c1c(C)c(C)nn1CC (stereo not drawn) [Compound 403],≥ 95,≥ 90,≥ 90,
CCn1nc(C)c(C)c1/C(OC(C)OC(=O)C(C)C)=C(\C#N)c1ccc(C(C)(C)C)cc1 (stereo not drawn) [Compound 404],≥ 95,≥ 90,≥ 90,
CCn1nc(C)c(C)c1/C(OC(C)OC(=O)C(C)(C)C)=C(\C#N)c1ccc(C(C)(C)C)cc1 (stereo not drawn) [Compound 405],≥ 95,≥ 90,≥ 90,"pest or weed control at 2 µg/mL [1, 8]: ≥ 90%; pest or weed control at 2 µg/mL ([2]; spray): ≥ 90%; pest or weed control at 1.25 µg/mL [3]: ≥ 90%"
CCCCC(=O)OC(C)O/C(=C(/C#N)c1ccc(C(C)(C)C)cc1)c1c(C)c(C)nn1CC (stereo not drawn) [Compound 406],≥ 95,≥ 90,≥ 90,

Structure (SMILES),"pest or weed control at 2.5 µg/mL [1, 4] [%]","pest or weed control at 5 µg/mL [2, 5] [%]",pest or weed control at 2.5 µg/mL ([3]; concentration 2.5 mg/L) [%],further results
CCn1nc(C)c(C)c1/C(OC(C)OC(=O)CC(C)C)=C(\C#N)c1ccc(C(C)(C)C)cc1 (stereo not drawn) [Compound 407],≥ 95,≥ 90,≥ 90,
CCn1nc(C)c(C)c1/C(OC(C)OC(=O)COC)=C(\C#N)c1ccc(C(C)(C)C)cc1 (stereo not drawn) [Compound 408],≥ 95,≥ 90,≥ 90,
CCn1nc(C)c(C)c1/C(OC(C)OC(=O)C1CC1)=C(\C#N)c1ccc(C(C)(C)C)cc1 (stereo not drawn) [Compound 409],≥ 95,≥ 90,≥ 90,"pest or weed control at 2 µg/mL [1, 8]: ≥ 90%; pest or weed control at 2 µg/mL ([2]; spray): ≥ 90%; pest or weed control at 1.25 µg/mL [3]: ≥ 90%"
CCn1nc(C)c(C)c1/C(OC(C)OC(=O)CSC)=C(\C#N)c1ccc(C(C)(C)C)cc1 (stereo not drawn) [Compound 410],≥ 95,≥ 90,≥ 90,
CCn1nc(C)c(C)c1/C(OC(C)OC(=O)C1CCCCC1)=C(\C#N)c1ccc(C(C)(C)C)cc1 (stereo not drawn) [Compound 411],≥ 95,≥ 90,≥ 90,
CCn1nc(C)c(C)c1/C(OC(C)OC(=O)CF)=C(\C#N)c1ccc(C(C)(C)C)cc1 (stereo not drawn) [Compound 412],,,,"pest or weed control at 2.5 µg/mL [1, 6]: ≥ 95%; pest or weed control at 5 µg/mL [2]: ≥ 90%; pest or weed control at 2.5 µg/mL [3]: ≥ 90%"
CCn1nc(C)c(C)c1/C(OC(C)OC(=O)C(F)(F)F)=C(\C#N)c1ccc(C(C)(C)C)cc1 (stereo not drawn) [Compound 413],≥ 95,≥ 90,≥ 90,
CCn1nc(C)c(C)c1/C(OC(C)OC(=O)c1ccccc1)=C(\C#N)c1ccc(C(C)(C)C)cc1 (stereo not drawn) [Compound 414],≥ 95,≥ 90,≥ 90,
CCn1nc(C)c(C)c1/C(OC(C)OC(=O)Cc1ccccc1)=C(\C#N)c1ccc(C(C)(C)C)cc1 (stereo not drawn) [Compound 415],,≥ 90,≥ 90,"pest or weed control at 2.5 µg/mL [1, 7]: ≥ 95%"
CCn1nc(C)c(C)c1/C(OC(C)OC(=O)C(C)(C)CC)=C(\C#N)c1ccc(C(C)(C)C)cc1 (stereo not drawn) [Compound 416],≥ 95,≥ 90,≥ 90,
C=CC(=O)OC(C)O/C(=C(/C#N)c1ccc(C(C)(C)C)cc1)c1c(C)c(C)nn1CC (stereo not drawn) [Compound 417],≥ 95,≥ 90,≥ 90,
COC(=O)OCO/C(=C(/C#N)c1ccc(C(C)(C)C)cc1)c1cc(C)nn1C [Compound 451],≥ 95,≥ 90,≥ 90,
CCOC(=O)OCO/C(=C(/C#N)c1ccc(C(C)(C)C)cc1)c1cc(C)nn1C [Compound 452],≥ 95,≥ 90,≥ 90,
Cc1cc(/C(OCOC(=O)OC(C)C)=C(\C#N)c2ccc(C(C)(C)C)cc2)n(C)n1 [Compound 454],≥ 95,≥ 90,≥ 90,
CCCCOC(=O)OCO/C(=C(/C#N)c1ccc(C(C)(C)C)cc1)c1cc(C)nn1C [Compound 456],≥ 95,≥ 90,≥ 90,
Cc1cc(/C(OCOC(=O)OCC(C)C)=C(\C#N)c2ccc(C(C)(C)C)cc2)n(C)n1 [Compound 457],≥ 95,≥ 90,≥ 90,
